Counter-ions that a name gives are not always drawn.

By melting point is commonly meant the temperature, or range, at which the solid turns liquid. In turn, `COCC(O)COc1ccc(CN(C)c2nc(=O)c3c(OC)c(OC)c(OC)cc3[nH]2)cc1` (centres unmarked) [Example 2, 2-{[4-(2-Hydroxy-3-methoxy-propoxy)-benzyl]-methyl-amino}-5,6,7-trimethoxy-1H-quinazolin-4-one] yielded a melting point of 108.1 to 111.5 °C.
In the case of `CCN1CCN(c2cccc(CN(C)c3nc(=O)c4c(OC)c(OC)c(OC)cc4[nH]3)c2)C1=O` [Example 265, 2-{[3-(3-Ethyl-2-oxo-imidazolidin-1-yl)-benzyl]-methyl-amino}-5,6,7-trimethoxy-1H-quinaozlin-4-one], the melting point is 200.3 to 200.9 °C.
Turning to `CCN(C)CCOc1ccc(CN(C)c2nc(=O)c3c(C)c(OC)c(OC)cc3[nH]2)cc1OC` [Example 25, 2-({4-[2-(Ethyl-methyl-amino)-ethoxy]-3-methoxy-benzyl}-methyl-amino)-6,7-dimethoxy-5-methyl-1H-quinazolin-4-one], the melting point is 158.1 to 159.2 °C.
Next, `COCCCN(C)c1cccc(CN(C)c2nc(=O)c3c(OC)c(OC)c(OC)cc3[nH]2)c1` (as salt: HCl) [Example 189, 5,6,7-Trimethoxy-2-({3-[(3-methoxy-propyl)-methyl-amino]-benzyl}-methyl-amino)-1H-quinazolin-4-one]: 166.7 to 168.1 °C; `COc1cc2[nH]c(N(C)Cc3cccc(NCc4ncc[nH]4)c3)nc(=O)c2c(OC)c1OC` [Example 220, 2-({3-[(1H-Imidazol-2-ylmethyl)-amino]-benzyl}-methylamino)-5,6,7-trimethoxy-1H-quinazolin-4-one]: 125 to 131 °C.
Take `COc1cc2[nH]c(N(C)Cc3cccc(CN(C)CCO)c3)nc(=O)c2c(OC)c1OC` (as salt: HCl) [Example 116, 2-[(3-{[(2-Hydroxy-ethyl)-methyl-amino]-methyl}-benzyl)-methyl-amino]-5,6,7-trimethoxy-1H-quinazolin-4-one]: the melting point fell in the range of 169 to 171.9 °C.
`COc1cc2[nH]c(N(C)Cc3ccc(OCCO)cc3)nc(=O)c2c(C)c1OC` [Example 31, 2-{[4-(2-Hydroxy-ethoxy)-benzyl]-methylamino}-6,7-dimethoxy-5-methyl-1H-quinazolin-4-one] yielded a melting point of 198.5 to 199.5 °C.
On to `COc1cc2[nH]c(N(C)Cc3cccc(N4CCOC4=O)c3)nc(=O)c2c(C)c1OC` [Example 254, 6,7-Dimethoxy-5-methyl-2-{methyl-[3-(2-oxo-oxazolidin-3-yl)-benzyl]-amino}-1H-quinazolin-4-one], for which the melting point fell in the range of 254.8 to 257.1 °C.
Molecule `COc1cc2[nH]c(N(C)Cc3cccc(NC4=NCCN4)c3)nc(=O)c2cc1OC` [Example 89, 2-{[3-(4,5-Dihydro-1H-imidazol-2-ylamino)-benzyl]-methyl-amino}-6,7-dimethoxy-1H-quinazolin-4-one] had a melting point of 163.8 to 176.9 °C.
As to `COc1cc2[nH]c(N(C)Cc3ccc(CN)cc3)nc(=O)c2c(C)c1OC` (as salt: HCl) [Example 42, 2-[(4-Aminomethyl-benzyl)-methyl-amino]-6,7-dimethoxy-5-methyl-1H-quinazolin-4-one], the melting point was in the range of 248.2 to 249.4 °C.
Take `COc1cc2[nH]c(N(C)Cc3cccc(C#N)c3)nc(=O)c2c(C)c1OC` (as salt: TFA) [Example 96, 3-{[(6,7-Dimethoxy-5-methyl-4-oxo-1,4-dihydro-quinazolin-2-yl)-methyl-amino]-methyl}-benzonitrile]: the melting point is 279.9 to 281.5 °C.
`COc1cc2[nH]c(N(C)Cc3cccc(/N=C(\C)N(C)C)c3)nc(=O)c2c(C)c1OC` [Example 167, N′-(3-{[(6,7-Dimethoxy-5-methyl-4-oxo-1,4-dihydro-quinazolin-2-yl)-methyl-amino]-methyl}-phenyl)-N,N-dimethyl-acetamide] showed a melting point of 174.4 to 174.8 °C.
On to `COCCNS(=O)(=O)c1cccc(CN(C)c2nc(=O)c3c(C)c(OC)c(OC)cc3[nH]2)c1` [Example 131, 3-{[(6,7-Dimethoxy-5-methyl-4-oxo-1,4-dihydro-quinazolin-2-yl)-methyl-amino]-methyl}-N-(2-methoxy-ethyl)-benzenesulfonamide], for which the melting point was 163 to 164.9 °C.
The molecule `COc1cc2[nH]c(N(C)Cc3cccc(CN(C)S(C)(=O)=O)c3)nc(=O)c2c(C)c1OC` [Example 17, N-(3-{[(6,7-Dimethoxy-5-methyl-4-oxo-1,4-dihydro-quinazolin-2-yl)-methyl-amino]-methyl}-benzyl)-N-methyl-methanesulfonamide] registered a melting point of 223.9 to 225.9 °C.
With `COc1cc2nc(N(C)Cc3cccc(N4CCCC4=O)c3)[nH]c(=O)c2c(OC)c1OC` [Example H-1, 5,6,7-Trimethoxy-2-{methyl-[3-(2-oxo-pyrrolidin-1-yl)-benzyl]-amino}-1H-quinazolin-4-one], the melting point lay within 165.5 to 166.5 °C.
Next, `COc1cc2[nH]c(N(C)Cc3ccc(OCC(CO)CO)cc3)nc(=O)c2c(C)c1OC` (as salt: HCl) [Example 15, 2-{[4-(3-Hydroxy-2-hydroxymethyl-propoxy)-benzyl]-methyl-amino}-6,7-dimethoxy-5-methyl-1H-quinazolin-4-one]: 197.5 to 199 °C; `CCc1c(OC)c(OC)cc2[nH]c(N(C)Cc3cccc(/N=C(\C)N(C)C)c3)nc(=O)c12` [Example 199, N′-(3-{[(5-Ethyl-6,7-dimethoxy-4-oxo-1,4-dihydro-quinazolin-2-yl)-methyl-amino]-methyl}-phenyl)-N,N-dimethyl-acetamidine]: 224.6 to 225.5 °C.
In turn, `COc1cc2nc(N(C)Cc3cccc(OCCO)c3)[nH]c(=O)c2c(OC)c1OC` [Example F-1, 2-{[3-(2-Hydroxy-ethoxy)-benzyl]-methyl-amino}-5,6,7-trimethoxy-1H-quinazolin-4-one] had a melting point of 146 to 147.5 °C.
`COCCNCc1ccc(CN(C)c2nc(=O)c3c(C)c(OC)c(OC)cc3[nH]2)cc1` (as salt: HCl) [Example 36, 6,7-Dimethoxy-2-({4-[(2-methoxy-ethylamino)-methyl]-benzyl}-methyl-amino)-5-methyl-1H-quinazolin-4-one] gave a melting point of 265 to 268 °C.
In the case of `COc1cc2[nH]c(N(C)Cc3cccc(OCC(=O)O)c3)nc(=O)c2c(C)c1OC` [Example 157, (3-{[(6,7-Dimethoxy-5-methyl-4-oxo-1,4-dihydro-quinazolin-2-yl)-methyl-amino]-methyl}-phenoxy)-acetic acid], the melting point was > 300 °C.
`COc1cc2[nH]c(N(C)Cc3cccc(/N=C/N(C)C)c3)nc(=O)c2cc1OC` (as salt: HCl) [Example 86, N′-(3-{[(6,7-Dimethoxy-4-oxo-1,4-dihydro-quinazolin-2-yl)-methyl-amino]-methyl}-phenyl)-N,N-dimethyl-formamidine]: the melting point lay in the range of 242 to 245 °C.
On to `COc1cc2[nH]c(N(C)Cc3cccc(-c4nccn4C)c3)nc(=O)c2c(C)c1OC` [Example 249, 6,7-Dimethoxy-5-methyl-2-{methyl-[3-(1-methyl-`1H-imidazol-2-yl)-benzyl]-amino}-1H-quinazolin-4-one], for which the melting point lay within 179 to 182.1 °C.
In the case of `COc1cc2nc(N(C)Cc3cccc(OC[S+](C)[O-])c3)[nH]c(=O)c2c(C)c1OC` (centres unmarked) [Example F-2, 2-[(3-Methanesulfinylmethoxy-benzyl)-methyl-amino]-6,7-dimethoxy-5-methyl-1H-quinazolin-4-one], the melting point fell in the range of 191 to 193.5 °C.
